Data on 10 compounds can be found in ChEMBL document CHEMBL1201862, “PubChem BioAssay data set” (2004).

Test systems include 786-0; SK-MEL-28; ACHN; MCF7; MDA-MB-435; MDA-N; SN12C; MOLT-4; TK-10; SK-OV-3; BT-549; NCI-H23; HCT-15; NCI-H460; Malme-3M; A549; SF-295; COLO 205; KM12; UACC-257.
Test in all cases: growth of human tumour cells (NCI), 48 h

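96-well plates; 48 h exposure; 5 concentrations. Endpoints by linear interpolation between flanking doses. Not reached: highest tested concentration assigned. GI50 marks 50% less growth.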 Calls of active or inactive are those of the source. Cut-off read from the data, not from the text of the source: active = GI50 up to about 1.1 µM and inactive = higher.

Take `COc1ccc2cc(C(=O)CCC(=O)O)ccc2c1`: the GI50 with 786-0 was 22.4 µM (inactive); in the assay on SK-MEL-28 it was > 100 µM (inactive); in the assay on ACHN it was > 100 µM (inactive); in the assay on MCF7, > 100 µM (inactive); with MDA-MB-435 it was > 100 µM (inactive); in the assay on MDA-N, > 100 µM (inactive). For the same compound, the GI50 in the assay with SN12C, with MOLT-4, with TK-10, in the assay on SK-OV-3, in the assay on BT-549 and in the assay with NCI-H23 was > 100 µM (inactive) throughout. The GI50 in the assay on HCT-15 is > 100 µM; in the assay on NCI-H460, > 100 µM (inactive); in the assay on Malme-3M, > 100 µM (inactive); with A549, > 100 µM (inactive); with SF-295, > 100 µM (inactive); with COLO 205, > 100 µM (inactive). For the same compound, the GI50 in the assay with KM12 and in the assay on UACC-257 was > 100 µM (inactive) in each case.
As for `CC(C(=O)OCc1ccccc1)(c1ccco1)N1C(=O)OC(c2ccccc2)C1c1ccccc1` (stereo not given), the GI50 in the assay with 786-0 was > 100 µM (inactive); in the assay on SK-MEL-28, > 100 µM (inactive); with ACHN it was > 100 µM (inactive); with MCF7 it was > 100 µM (inactive); in the assay on MDA-MB-435, > 100 µM (inactive); in the assay with MDA-N it was > 51.1 µM (inactive). Besides, the GI50 is > 100 µM (inactive) with SN12C; 5.05 µM (inactive) in the assay on MOLT-4; > 100 µM (inactive) with TK-10; > 100 µM (inactive) with SK-OV-3; > 100 µM (inactive) in the assay on BT-549; > 100 µM (inactive) in the assay on NCI-H23. Besides, the GI50 in the assay on HCT-15 is > 100 µM; with NCI-H460 it was 26.1 µM (inactive); in the assay on Malme-3M it was > 100 µM (inactive); in the assay with A549, > 100 µM (inactive); in the assay on SF-295, > 100 µM (inactive); in the assay on COLO 205, > 100 µM (inactive). Further, the GI50 is > 25.8 µM (inactive) with KM12 and > 100 µM (inactive) with UACC-257.
`O=C(OCc1ccccc1)N1CCN(C(=O)OCc2ccccc2)CCN(C(=O)OCc2ccccc2)CCN(C(=O)OCc2ccccc2)CCN(C(=O)OCc2ccccc2)CC1`: the GI50 in the assay on 786-0 is 16.8 µM (inactive); with SK-MEL-28, > 100 µM (inactive); with ACHN, > 100 µM (inactive); with MCF7 it was > 100 µM (inactive); with MDA-MB-435, > 100 µM (inactive); in the assay with MDA-N, > 100 µM (inactive). The GI50 in the assay on SN12C was > 100 µM (inactive); in the assay with MOLT-4 it was > 100 µM (inactive); with TK-10, 46.6 µM (inactive); with SK-OV-3, > 100 µM (inactive); in the assay on BT-549 it was > 100 µM (inactive); in the assay with HCT-15 it was 46.8 µM. Further, the GI50 was > 100 µM (inactive) in the assay on NCI-H460; 24.4 µM (inactive) in the assay with Malme-3M; > 100 µM (inactive) in the assay with A549; > 100 µM (inactive) in the assay on SF-295; 31.1 µM (inactive) in the assay with COLO 205; > 100 µM (inactive) in the assay on KM12. Also, the GI50 with UACC-257 was 26.7 µM (inactive).
Turning to `CC1(C)C2CCC1(C)C(NC(=O)COCCOCC(N)=O)C2` (stereo not given), the GI50 with 786-0, with SK-MEL-28, with ACHN, in the assay with MCF7, in the assay on MDA-MB-435 and in the assay on MDA-N was > 100 µM (inactive) each time. Moreover, the GI50 in the assay on SN12C, with MOLT-4, with TK-10, in the assay with SK-OV-3, with BT-549 and with NCI-H23 was > 100 µM (inactive) in each case. In addition, the GI50 with NCI-H460 was > 100 µM (inactive); in the assay with Malme-3M, > 100 µM (inactive); with A549 it was > 100 µM (inactive); in the assay with SF-295 it was > 100 µM (inactive); in the assay with COLO 205 it was 94.8 µM (inactive); in the assay on KM12, > 100 µM (inactive). Also, in the assay with UACC-257, the GI50 was > 100 µM (inactive).
As to `Cc1ccc(S(=O)(=O)N(CC(O)COc2ccccc2)c2c(F)c(F)cc(F)c2F)cc1` (stereo not given), the GI50 in the assay on 786-0 is 22.3 µM (inactive); in the assay on SK-MEL-28, 19.5 µM (inactive); in the assay on ACHN, 21.2 µM (inactive); with MCF7 it was 16.4 µM (inactive); in the assay with MDA-MB-435 it was 16.9 µM (inactive); in the assay with MDA-N, 17.2 µM (inactive). Further, the GI50 in the assay on SN12C was 22.5 µM (inactive); in the assay on MOLT-4, < 0.01 µM (active); in the assay on TK-10 it was 32.9 µM (inactive); in the assay with SK-OV-3, 19.4 µM (inactive); in the assay on BT-549, 24.5 µM (inactive); in the assay with NCI-H23, 18.8 µM (inactive). Besides, the GI50 with HCT-15 is 20.9 µM; in the assay on NCI-H460, 16.7 µM (inactive); in the assay on Malme-3M it was 23.1 µM (inactive); in the assay on A549, 21.9 µM (inactive); in the assay on SF-295, 24 µM (inactive); with COLO 205, 15.7 µM (inactive). Besides, the GI50 in the assay on KM12 is 25.7 µM (inactive).
In the case of `COc1cccc2c(NNc3ccccc3)c3ccc([N+](=O)[O-])cc3nc12`, the GI50 is 21.2 µM (inactive) with 786-0; 43.2 µM (inactive) with SK-MEL-28; 20.2 µM (inactive) in the assay with ACHN; 26.4 µM (inactive) in the assay with MCF7; 18.1 µM (inactive) in the assay on MDA-MB-435; 33.1 µM (inactive) in the assay on MDA-N. Also, the GI50 with SN12C was 47.1 µM (inactive); in the assay with MOLT-4, 1.03 µM (active); in the assay on TK-10 it was 21.3 µM (inactive); with SK-OV-3, 53.6 µM (inactive); with BT-549, 12.1 µM (inactive); with NCI-H23, 20.5 µM (inactive). Moreover, the GI50 was 33 µM in the assay with HCT-15; 32.3 µM (inactive) in the assay with NCI-H460; 54.3 µM (inactive) in the assay with Malme-3M; 24.2 µM (inactive) in the assay on A549; 27.5 µM (inactive) in the assay on SF-295; 46.3 µM (inactive) with COLO 205. For the same compound, the GI50 with KM12 was 11.6 µM (inactive); in the assay with UACC-257, 29.9 µM (inactive).
As to `CCOC(=O)c1sc2nc(SC)nc(Nc3ccc(OC)c(OC)c3)c2c1N`, the GI50 is 5.51 µM (inactive) in the assay with 786-0; 14.7 µM (inactive) in the assay with SK-MEL-28; 13.2 µM (inactive) with ACHN; 3.95 µM (inactive) in the assay with MCF7; 34.3 µM (inactive) in the assay on MDA-MB-435; > 100 µM (inactive) in the assay on MDA-N. Besides, the GI50 was 60.3 µM (inactive) in the assay on SN12C; 6.73 µM (inactive) in the assay with TK-10; 12.9 µM (inactive) in the assay with SK-OV-3; 17.7 µM (inactive) in the assay on BT-549; 3.52 µM (inactive) in the assay on NCI-H23; > 100 µM with HCT-15. The GI50 in the assay with NCI-H460 was < 0.01 µM (active); with Malme-3M, 23.2 µM (inactive); in the assay on A549, 5.28 µM (inactive); in the assay with SF-295, 6.9 µM (inactive); in the assay with COLO 205, 83.4 µM (inactive); with KM12, > 100 µM (inactive). In addition, in the assay with UACC-257, the GI50 was > 100 µM (inactive).
For `C=C(Cl)C(Cl)(CBr)CCC(Br)C(C)(C)Br` (stereo not given), the GI50 is 1.14 µM (inactive) in the assay on 786-0; 2.95 µM (inactive) with SK-MEL-28; 2.62 µM (inactive) in the assay with ACHN; 1.5 µM (inactive) with MCF7; 9.44 µM (inactive) in the assay on MDA-MB-435; 8.93 µM (inactive) in the assay on MDA-N. The GI50 was 7.28 µM (inactive) with SN12C; 6.9 µM (inactive) with MOLT-4; 1.49 µM (inactive) in the assay with TK-10; 17.2 µM (inactive) with SK-OV-3; 7.66 µM (inactive) in the assay on BT-549; 14.2 µM (inactive) in the assay with NCI-H23. Also, the GI50 in the assay with HCT-15 is 3.03 µM; with NCI-H460, 1.72 µM (inactive); in the assay with Malme-3M, 14.3 µM (inactive); in the assay with A549 it was 4.9 µM (inactive); with SF-295, 2 µM (inactive); with COLO 205, 2.75 µM (inactive). Further, the values for the GI50 in the assay with KM12 and in the assay with UACC-257 were 1.38 µM (inactive) and 1.8 µM (inactive), respectively.
Turning to `O=C1N=C(SC2OC(CO)C(O)C(O)C2O)S/C1=C\c1ccccc1` (stereo not given), the GI50 in the assay on 786-0, in the assay on SK-MEL-28, in the assay on ACHN, with MCF7, in the assay with MDA-MB-435 and in the assay on MDA-N was > 100 µM (inactive) throughout. In addition, the GI50 with SN12C, in the assay with MOLT-4, in the assay on TK-10, in the assay on SK-OV-3, with BT-549 and in the assay on NCI-H23 was > 100 µM (inactive) in each case. In addition, the GI50 in the assay on HCT-15 is > 100 µM; in the assay on NCI-H460, > 100 µM (inactive); with Malme-3M, > 100 µM (inactive); in the assay with A549 it was > 100 µM (inactive); in the assay on SF-295 it was > 100 µM (inactive); with KM12, > 100 µM (inactive). In addition, the GI50 in the assay with UACC-257 is > 100 µM (inactive).
Regarding `C1CN1c1nc(N2CC2)nc(N2CC2)n1`, the GI50 in the assay on 786-0 was 2.97 µM (inactive); with SK-MEL-28 it was 14.3 µM (inactive); with ACHN, 0.944 µM (active); in the assay with MCF7 it was 2.16 µM (inactive); in the assay on MDA-MB-435, 12.6 µM (inactive); with MDA-N, 12.1 µM (inactive). Moreover, the GI50 in the assay with SN12C was 2.95 µM (inactive); in the assay with MOLT-4, 0.495 µM (active); in the assay on TK-10, 24 µM (inactive); with SK-OV-3, 8.87 µM (inactive); in the assay on BT-549, 15.9 µM (inactive); with NCI-H23, 2.73 µM (inactive). Further, the GI50 in the assay on HCT-15 is 12.9 µM; in the assay on NCI-H460, 0.41 µM (active); with Malme-3M it was 11.7 µM (inactive); with A549, 4.29 µM (inactive); in the assay on SF-295, 2.37 µM (inactive); in the assay on COLO 205, 13.6 µM (inactive). Also, the GI50 with KM12 is 16.2 µM (inactive); in the assay with UACC-257, 10.7 µM (inactive).
